From patent US20120035206A1, “PREPARATION AND APPLICATION OF NOVEL ANTIBACTERIAL AND ANTICANCER COMPOUNDS AND THEIR DERIVATIVES” (priority 2009, published 2012)
Converted amounts (≈) assume the structure as drawn.

What was measured:
Type in all cases: cell-based
E. floccosum = experiment: In vitro antibacterial (antifungal) test, two-fold dilution MIC; conditions: Epidermophyton floccosum, RPMI 1640, culture 2-7 days
Terchoderma = experiment: as above; conditions: Trichoderma, RPMI 1640, culture 2-7 days
C. parapsilosis = experiment: as above; conditions: Lodderomyces parapsilosis, RPMI 1640, culture 2-7 days
[1] = system: Fusarium oxysporum vasinfectum; experiment: as above; conditions: RPMI 1640, culture 2-7 days
C. albicans = experiment: as above; conditions: Candida albicans, read-out: MIC C. albicas
S. schenekn = experiment: as above; conditions: RPMI 1640, culture 2-7 days
gibberella = experiment: as above; conditions: RPMI 1640, culture 2-7 days
M. gypseum = experiment: as above; conditions: Nannizzia gypsea, RPMI 1640, culture 2-7 days
C. neoformans = experiment: as above; conditions: Cryptococcus neoformans, RPMI 1640, culture 2-7 days
C. Krusei = experiment: as above; conditions: Pichia kudriavzevii, RPMI 1640, culture 2-7 days
C. glabrata = experiment: as above; conditions: Nakaseomyces glabratus, RPMI 1640, culture 2-7 days
C. tropicalis = experiment: as above; conditions: Candida tropicalis, RPMI 1640, culture 2-7 days
Setosphaeria turcica = experiment: as above; conditions: Exserohilum turcicum, RPMI 1640, culture 2-7 days
HTB-131MDA-MB-453 = experiment: In vitro anticancer MTT experiment; conditions: concentration 5 ug/ml, 48 h or 72 h, read-out: inhibition ratio HTB-131MDA-MB-453
In short: (§1)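 Human cancer cell lines in RPMI 1640 with 10% fetal calf serum and 0.01% L-glutamine were seeded at 6000-7000 cells per well, settled 12 h, then exposed to compound for 48 h or 72 h at 37° C., 5% CO2. Values are percent inhibition at 5 ug/ml by MTT, A570.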

HTB-94 = experiment: In vitro anticancer MTT experiment; conditions: concentration 5 ug/ml, 48 h or 72 h, read-out: inhibition ratio HTB-94
In short: as §1

CRL-1469PANC-1 = experiment: In vitro anticancer MTT experiment; conditions: concentration 5 ug/ml, 48 h or 72 h, read-out: inhibition ratio CRL-1469PANC-1
In short: as §1

CRL-2233SNU-398 = experiment: In vitro anticancer MTT experiment; conditions: concentration 5 ug/ml, 48 h or 72 h, read-out: inhibition ratio CRL-2233SNU-398
In short: as §1

SGC7901 = experiment: In vitro anticancer MTT experiment; conditions: Homo sapiens, SGC-7901, concentration 5 ug/ml, 48 h or 72 h, read-out: inhibition ratio SGC7901
In short: as §1

HTB-38HT-29 = experiment: In vitro anticancer MTT experiment; conditions: concentration 5 ug/ml, 48 h or 72 h, read-out: inhibition ratio HTB-38HT-29
In short: as §1

L428 = experiment: In vitro anticancer MTT experiment; conditions: Homo sapiens, L-428, concentration 5 ug/ml, 48 h or 72 h, read-out: inhibition ratio L428
In short: as §1

A375 = experiment: In vitro anticancer MTT experiment; conditions: Homo sapiens, A-375, concentration 5 ug/ml, 48 h or 72 h, read-out: inhibition ratio A375
In short: as §1

AS24391 = experiment: In vitro anticancer MTT experiment; conditions: concentration 5 ug/ml, 48 h or 72 h, read-out: inhibition ratio AS24391
In short: as §1

L1210 = experiment: In vitro anticancer MTT experiment; conditions: Mus musculus, concentration 5 ug/ml, 48 h or 72 h, read-out: inhibition ratio L1210
In short: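 Inhibition ratios were measured at a compound concentration of 5 ug/ml. Log-phase cells grown in RPMI 1640/10% fetal calf serum were treated for 48 h or 72 h, and viability was assessed by MTT reduction with absorbance read at 570 nm.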

FTC 133 = experiment: In vitro anticancer MTT experiment; conditions: Homo sapiens, concentration 5 ug/ml, 48 h or 72 h, read-out: inhibition ratio FTC 133
In short: as §1

HTB-95637 = experiment: In vitro anticancer MTT experiment; conditions: concentration 5 ug/ml, 48 h or 72 h, read-out: inhibition ratio HTB-95637
In short: as §1

CRL-1435PC-3 = experiment: In vitro anticancer MTT experiment; conditions: concentration 5 ug/ml, 48 h or 72 h, read-out: inhibition ratio CRL-1435PC-3
In short: as §1

B01092 = experiment: In vitro anticancer MTT experiment; conditions: concentration 5 ug/ml, 48 h or 72 h, read-out: inhibition ratio B01092
In short: as §1

A. niger = experiment: In vitro antibacterial (antifungal) test, two-fold dilution MIC; conditions: Aspergillus niger, RPMI 1640, culture 2-7 days

| Structure (SMILES) | MIC (E. floccosum) [µg/mL] | MIC (C. parapsilosis) [µg/mL] | MIC (C. albicans) [µg/mL] | MIC (S. schenekn) [µg/mL] | MIC (gibberella) [µg/mL] | MIC (M. gypseum) [µg/mL] | MIC (C. neoformans) [µg/mL] | MIC (C. Krusei) [µg/mL] | MIC (C. glabrata) [µg/mL] | MIC (C. tropicalis) [µg/mL] | inhibition at 5 µg/mL (HTB-131MDA-MB-453) [%] | inhibition at 5 µg/mL (CRL-1469PANC-1) [%] | inhibition at 5 µg/mL (SGC7901) [%] | inhibition at 5 µg/mL (HTB-38HT-29) [%] | inhibition at 5 µg/mL (L428) [%] | inhibition at 5 µg/mL (A375) [%] | inhibition at 5 µg/mL (AS24391) [%] | inhibition at 5 µg/mL (L1210) [%] | inhibition at 5 µg/mL (HTB-95637) [%] | inhibition at 5 µg/mL (B01092) [%] | other results |
| --- | --- | --- | --- | --- | --- | --- | --- | --- | --- | --- | --- | --- | --- | --- | --- | --- | --- | --- | --- | --- | --- |
| O=C1/C(=C/Br)CSc2ccc(F)cc21 [Compound 11, (Z)-3-(bromomethylene)-6-fluorothiochroman-4-one] | 32 (≈ 117 µM) | 32 (≈ 117 µM) | 64 (≈ 234 µM) | 32 (≈ 117 µM) | 16 (≈ 58.6 µM) | 64 (≈ 234 µM) | 32 (≈ 117 µM) | 16 (≈ 58.6 µM) | 8 (≈ 29.3 µM) | 64 (≈ 234 µM) | 45.6 | 39.4 | 59 | 45.5 | 50.3 | 47 | 46.9 | 86 | 49.5 | 45.5 | MIC (Terchoderma): 16 µg/mL (≈ 58.6 µM); MIC [1]: 32 µg/mL (≈ 117 µM); MIC (Setosphaeria turcica): 32 µg/mL (≈ 117 µM); inhibition at 5 µg/mL (HTB-94): 36.7%; inhibition at 5 µg/mL (CRL-2233SNU-398): 60.1%; inhibition at 5 µg/mL (FTC 133): 56.7%; inhibition at 5 µg/mL (CRL-1435PC-3): 47.9% |
| Cc1ccc2c(c1)C(=O)CSC2 [Compound 13] | 32 (≈ 180 µM) | 32 (≈ 180 µM) | 64 (≈ 359 µM) | 64 (≈ 359 µM) | – | 16 (≈ 89.8 µM) | 64 (≈ 359 µM) | – | 64 (≈ 359 µM) | 16 (≈ 89.8 µM) | 65.5 | 62.7 | 50.6 | 57.3 | 37.5 | 74.3 | 45.1 | 85.6 | 56.6 | 43.8 | MIC (A. niger): 32 µg/mL (≈ 180 µM); inhibition at 5 µg/mL (HTB-94): 45.6%; inhibition at 5 µg/mL (FTC 133): 57.8% |
| OC1/C(=C/Cl)SCc2ccccc21 (centres unmarked) [Compound 20, (Z)-3-(chloromethylene)isothiochroman-4-ol] | 16 (≈ 75.2 µM) | 8 (≈ 37.6 µM) | 16 (≈ 75.2 µM) | 32 (≈ 150 µM) | 16 (≈ 75.2 µM) | 16 (≈ 75.2 µM) | 16 (≈ 75.2 µM) | 32 (≈ 150 µM) | 8 (≈ 37.6 µM) | 32 (≈ 150 µM) | 25.8 | 34.5 | 45.9 | 45.5 | 43.3 | 50.2 | 49.8 | 80.3 | 56.2 | 46.9 | MIC (Setosphaeria turcica): 8 µg/mL (≈ 37.6 µM); inhibition at 5 µg/mL (HTB-94): 45.7%; inhibition at 5 µg/mL (CRL-2233SNU-398): 40.4%; inhibition at 5 µg/mL (FTC 133): 36.9%; inhibition at 5 µg/mL (CRL-1435PC-3): 45.5% |
| O=C1/C(=C\Cl)CSc2ccc(Cl)cc21 [Compound 21, (E)-6-chloro-3-(chloromethylene)thiochroman-4-one] | 16 (≈ 65.3 µM) | 8 (≈ 32.6 µM) | 8 (≈ 32.6 µM) | 16 (≈ 65.3 µM) | 8 (≈ 32.6 µM) | 32 (≈ 131 µM) | 4 (≈ 16.3 µM) | 8 (≈ 32.6 µM) | 8 (≈ 32.6 µM) | 16 (≈ 65.3 µM) | 55.6 | 63 | 50 | 54.3 | 52.3 | 56.9 | 60.3 | 78.4 | 54.3 | 35.9 | MIC (Terchoderma): 4 µg/mL (≈ 16.3 µM); MIC [1]: 32 µg/mL (≈ 131 µM); MIC (Setosphaeria turcica): 32 µg/mL (≈ 131 µM); inhibition at 5 µg/mL (CRL-2233SNU-398): 46.7%; inhibition at 5 µg/mL (FTC 133): 55.9%; inhibition at 5 µg/mL (CRL-1435PC-3): 54.6% |
| O=C1/C(=C\Cl)CSc2ccc(F)cc21 [Compound 22, (E)-3-(chloromethylene)-6-fluorothiochroman-4-one] | 16 (≈ 70 µM) | 16 (≈ 70 µM) | 4 (≈ 17.5 µM) | 8 (≈ 35 µM) | 4 (≈ 17.5 µM) | 16 (≈ 70 µM) | 16 (≈ 70 µM) | 16 (≈ 70 µM) | 8 (≈ 35 µM) | 32 (≈ 140 µM) | 55.9 | 33.3 | 60.7 | 47.8 | 53.9 | 56.7 | 43.5 | 86.7 | 36.9 | 43.6 | MIC (Terchoderma): 32 µg/mL (≈ 140 µM); MIC [1]: 16 µg/mL (≈ 70 µM); MIC (Setosphaeria turcica): 8 µg/mL (≈ 35 µM); inhibition at 5 µg/mL (HTB-94): 51%; inhibition at 5 µg/mL (CRL-2233SNU-398): 49%; inhibition at 5 µg/mL (CRL-1435PC-3): 30.5% |
